# According to patent US20220023258A1, “METHODS OF TREATING CONDITIONS RELATED TO THE S1P1 RECEPTOR” (Arena Pharmaceuticals, Inc., priority 2018, published 2022):
# Where a name gives a salt, the structure may show the parent alone.
# Tested on: healthy adult subjects
# Experiment: Multiple ascending dose study: heart rate, blood pressure, QTc
# Type: in vivo, human
# Settings: for Maximum post-dose QTc, On Treatment Mean (SD) / Maximum post-dose QTc, Change from Baseline Mean / Maximum post-dose QTc, Change from Baseline Median / Maximum post-dose QTc, Change from Baseline Min, Max: Day 1 to Day 23; for Minimum post-dose Diastolic BP, Change from Baseline Mean / Minimum post-dose Diastolic BP, Change from Baseline Median / Minimum post-dose Diastolic BP, Change from Baseline Min, Max / Minimum post-dose Diastolic BP, On Treatment Mean (SD) / Minimum post-dose Heart Rate, Change from Baseline Mean / Minimum post-dose Heart Rate, Change from Baseline Median / Minimum post-dose Heart Rate, Change from Baseline Min, Max / Minimum post-dose Heart Rate, On Treatment Mean (SD) / Minimum post-dose Systolic BP, Change from Baseline Mean / Minimum post-dose Systolic BP, Change from Baseline Median / Minimum post-dose Systolic BP, Change from Baseline Min, Max / Minimum post-dose Systolic BP, On Treatment Mean: Day 1 to Day 28
# [1] = 0.5 mg for 7 days then 3.0 mg for 14 days
# [2] = 0.35 mg for 7 days then 2.0 mg for 14 days
# Procedure: A randomized, double-blind, placebo-controlled, sequential, ascending, multiple dose study to assess the safety, tolerability, and pharmacokinetics of the L-arginine salt of Compound 1 administered to healthy adult subjects was conducted. This study was designed to evaluate the safety, tolerability, pharmacokinetics, and pharmacodynamics of the L-arginine salt of Compound 1.
# Cohort 1 was dosed with 0.7 mg (by administering two 0.35 mg formulations) for 21 days. Cohort 2 was dosed with 1.35 mg (by administering both a 0.35 mg formulation and a 1 mg formulation) for 21 days. Cohort 3 was dosed with 2.0 mg for 21 days. Cohort 4 was dosed with 0.35 mg for 7 days and then with 2.0 mg for 14 days. Cohort 5 was dosed with 0.5 for 7 days and then with 3.0 mg (by administering both a 1 mg formulation and a 2 mg formulation) for 14 days.
# The following safety assessments were conducted: physical examinations with ophthalmoscopy, clinical laboratory tests (serum chemistry, coagulation, and urinalysis), vital signs, continuous telemetry (12 lead ECG), safety ECGs, pulmonary function testing (PFT), serum protein electrophoresis (SPEP) and serum immunoelectrophoresis (IEP), and adverse event reporting.
compound,measurement,setting,value
O=C(O)C[C@H]1CCc2c1[nH]c1ccc(OCc3ccc(C4CCCC4)c(C(F)(F)F)c3)cc21 [L-arginine salt of Compound 1],"Maximum post-dose QTc, On Treatment Mean (SD)",[1],425.10 (13.90) MS
same,"Maximum post-dose QTc, Change from Baseline Mean",0.7 mg for 21 days,3.60 MS
same,"Maximum post-dose QTc, Change from Baseline Median",0.7 mg for 21 days,3.50 MS
same,"Maximum post-dose QTc, Change from Baseline Min, Max",0.7 mg for 21 days,−8.00 to 16.00 MS
same,"Maximum post-dose QTc, On Treatment Mean (SD)",0.7 mg for 21 days,418.40 (16.56) MS
same,"Maximum post-dose QTc, Change from Baseline Mean",1.35 mg for 21 days,8.20 MS
same,"Maximum post-dose QTc, Change from Baseline Median",1.35 mg for 21 days,6.00 MS
same,"Maximum post-dose QTc, Change from Baseline Min, Max",1.35 mg for 21 days,−5.00 to 25.00 MS
same,"Maximum post-dose QTc, On Treatment Mean (SD)",1.35 mg for 21 days,423.60 (16.14) MS
same,"Maximum post-dose QTc, Change from Baseline Mean",2.0 mg for 21 days,4.00 MS
same,"Maximum post-dose QTc, Change from Baseline Median",2.0 mg for 21 days,4.50 MS
same,"Maximum post-dose QTc, Change from Baseline Min, Max",2.0 mg for 21 days,−8.00 to 13.00 MS
same,"Maximum post-dose QTc, On Treatment Mean (SD)",2.0 mg for 21 days,421.20 (10.61) MS
same,"Minimum post-dose Diastolic BP, Change from Baseline Mean",[2],−7.90 mmHg
same,"Minimum post-dose Diastolic BP, Change from Baseline Median",[2],−6.00 mmHg
same,"Minimum post-dose Diastolic BP, Change from Baseline Min, Max",[2],−19.00 to −1.00 mmHg
same,"Minimum post-dose Diastolic BP, On Treatment Mean (SD)",[2],50.80 (5.65) mmHg
same,"Minimum post-dose Heart Rate, Change from Baseline Mean",[2],−10.60 BPM
same,"Minimum post-dose Heart Rate, Change from Baseline Median",[2],−7.00 BPM
same,"Minimum post-dose Heart Rate, Change from Baseline Min, Max",[2],−35.00 to 3.00 BPM
same,"Minimum post-dose Heart Rate, On Treatment Mean (SD)",[2],52.00 (4.74) BPM
same,"Minimum post-dose Systolic BP, Change from Baseline Mean",[2],−13.00 mmHg
same,"Minimum post-dose Systolic BP, Change from Baseline Median",[2],−13.00 mmHg
same,"Minimum post-dose Systolic BP, Change from Baseline Min, Max",[2],−28.00 to 0.00 mmHg
same,"Minimum post-dose Systolic BP, On Treatment Mean",[2],94.30 mmHg
same,"Minimum post-dose Diastolic BP, Change from Baseline Mean",[1],−6.30 mmHg
same,"Minimum post-dose Diastolic BP, Change from Baseline Median",[1],−7.00 mmHg
same,"Minimum post-dose Diastolic BP, Change from Baseline Min, Max",[1],−13.00 to 3.00 mmHg
same,"Minimum post-dose Diastolic BP, On Treatment Mean (SD)",[1],50.20 (4.21) mmHg
same,"Minimum post-dose Heart Rate, Change from Baseline Mean",[1],−7.30 BPM
same,"Minimum post-dose Heart Rate, Change from Baseline Median",[1],−6.50 BPM
same,"Minimum post-dose Heart Rate, Change from Baseline Min, Max",[1],−14.00 to −2.00 BPM
same,"Minimum post-dose Heart Rate, On Treatment Mean (SD)",[1],53.80 (4.73) BPM
same,"Minimum post-dose Systolic BP, Change from Baseline Mean",[1],−7.80 mmHg
same,"Minimum post-dose Systolic BP, Change from Baseline Median",[1],−5.00 mmHg
same,"Minimum post-dose Systolic BP, Change from Baseline Min, Max",[1],−18.00 to 5.00 mmHg
same,"Minimum post-dose Systolic BP, On Treatment Mean",[1],93.20 mmHg
same,"Minimum post-dose Diastolic BP, Change from Baseline Mean",0.7 mg for 21 days,−6.10 mmHg
same,"Minimum post-dose Diastolic BP, Change from Baseline Median",0.7 mg for 21 days,−6.00 mmHg
same,"Minimum post-dose Diastolic BP, Change from Baseline Min, Max",0.7 mg for 21 days,−16.00 to 2.00 mmHg
same,"Minimum post-dose Diastolic BP, On Treatment Mean (SD)",0.7 mg for 21 days,56.00 (8.31) mmHg
same,"Minimum post-dose Heart Rate, Change from Baseline Mean",0.7 mg for 21 days,−5.50 BPM
same,"Minimum post-dose Heart Rate, Change from Baseline Median",0.7 mg for 21 days,−5.00 BPM
same,"Minimum post-dose Heart Rate, Change from Baseline Min, Max",0.7 mg for 21 days,−12.00 to −1.00 BPM
same,"Minimum post-dose Heart Rate, On Treatment Mean (SD)",0.7 mg for 21 days,54.20 (4.05) BPM
same,"Minimum post-dose Systolic BP, Change from Baseline Mean",0.7 mg for 21 days,−9.70 mmHg
same,"Minimum post-dose Systolic BP, Change from Baseline Median",0.7 mg for 21 days,−9.50 mmHg
same,"Minimum post-dose Systolic BP, Change from Baseline Min, Max",0.7 mg for 21 days,−16.00 to −1.00 mmHg
same,"Minimum post-dose Systolic BP, On Treatment Mean",0.7 mg for 21 days,96.10 mmHg
same,"Minimum post-dose Diastolic BP, Change from Baseline Mean",1.35 mg for 21 days,−5.20 mmHg
same,"Minimum post-dose Diastolic BP, Change from Baseline Median",1.35 mg for 21 days,−7.50 mmHg
same,"Minimum post-dose Diastolic BP, Change from Baseline Min, Max",1.35 mg for 21 days,−11.00 to 6.00 mmHg
same,"Minimum post-dose Diastolic BP, On Treatment Mean (SD)",1.35 mg for 21 days,53.70 (4.03) mmHg
same,"Minimum post-dose Heart Rate, Change from Baseline Mean",1.35 mg for 21 days,−6.20 BPM
same,"Minimum post-dose Heart Rate, Change from Baseline Median",1.35 mg for 21 days,−5.00 BPM
same,"Minimum post-dose Heart Rate, Change from Baseline Min, Max",1.35 mg for 21 days,−18.00 to 3.00 BPM
same,"Minimum post-dose Heart Rate, On Treatment Mean (SD)",1.35 mg for 21 days,54.40 (4.09) BPM
same,"Minimum post-dose Systolic BP, Change from Baseline Mean",1.35 mg for 21 days,−8.90 mmHg
same,"Minimum post-dose Systolic BP, Change from Baseline Median",1.35 mg for 21 days,−8.00 mmHg
same,"Minimum post-dose Systolic BP, Change from Baseline Min, Max",1.35 mg for 21 days,−22.00 to 3.00 mmHg
same,"Minimum post-dose Systolic BP, On Treatment Mean",1.35 mg for 21 days,100.10 mmHg
same,"Minimum post-dose Diastolic BP, Change from Baseline Mean",2.0 mg for 21 days,−11.20 mmHg
same,"Minimum post-dose Diastolic BP, Change from Baseline Median",2.0 mg for 21 days,−9.00 mmHg
same,"Minimum post-dose Diastolic BP, Change from Baseline Min, Max",2.0 mg for 21 days,−21.00 to −4.00 mmHg
same,"Minimum post-dose Diastolic BP, On Treatment Mean (SD)",2.0 mg for 21 days,45.30 (7.42) mmHg
same,"Minimum post-dose Heart Rate, Change from Baseline Mean",2.0 mg for 21 days,−8.30 BPM
same,"Minimum post-dose Heart Rate, Change from Baseline Median",2.0 mg for 21 days,−7.50 BPM
same,"Minimum post-dose Heart Rate, Change from Baseline Min, Max",2.0 mg for 21 days,−16.00 to −3.00 BPM
same,"Minimum post-dose Heart Rate, On Treatment Mean (SD)",2.0 mg for 21 days,51.00 (4.78) BPM
same,"Minimum post-dose Systolic BP, Change from Baseline Mean",2.0 mg for 21 days,−9.80 mmHg
same,"Minimum post-dose Systolic BP, Change from Baseline Median",2.0 mg for 21 days,−9.00 mmHg
same,"Minimum post-dose Systolic BP, Change from Baseline Min, Max",2.0 mg for 21 days,−18.00 to −4.00 mmHg
same,"Minimum post-dose Systolic BP, On Treatment Mean",2.0 mg for 21 days,90.80 mmHg
